Data from US20240018501A1, “HIGHER PERFORMANCE PROTEASES FOR SCARLESS PEPTIDE TAG REMOVAL” (priority 2017, published 2024).
Ends that are not written are not given here. * marks the point of attachment. Butanoyl(2-oxo) = CCC(=O)C(=O)*; Pyruvoyl = CC(=O)C(=O)*

The substances below were run on His6-ElxO (assay: His6-ElxO activity assay (NADPH absorbance at 340 nm, LC-MS)). Settings: LC-MS analysis.
Assay type: biochemical, Staphylococcus epidermidis 15X154
Procedure: Wild type or mutant His6-ElxO (2 or 10 μM) and purified peptide (0.1 to 5 mM) were incubated with NADPH (2.5 mM) in assay buffer (100 mM HEPES, 500 mM NaCl, pH 7.5) at 25° C. Reaction progress was monitored by UV spectrophotometry to measure initial rates, measuring the disappearance of NADPH absorbance at 340 nm. […] The mobile phase was 0.1% (v/v) formic acid in water (A) and methanol (B). A gradient of 0-70% (v/v) B in A over 30 minutes and a flow rate of 0.5 mL min^−1 were used.
Synthetic lactocin S (50 μM), obtained from Prof. J. Vederas (University of Alberta), was incubated with His6-ElxO (50 μM) and NADPH (10 mM) in assay buffer (100 mM HEPES, 500 mM NaCl, pH 7.5) at room temperature for 12 h. […] A gradient of 3-97% (v/v) B (0.10% (v/v) formic acid in methanol) in A (0.1% (v/v) formic acid in water) over 12 min was used.

Substance	reduction by His6-ElxO in the presence of NADPH
Pyr-APVLA (Pyruvoyl-APVLA) [resembles the N-terminus of lactocin S]	reduced
OBu-AAIAK	substrates for the enzyme
Pyr-AAIV (Pyruvoyl-AAIV)	reduced
Pyr-AAI (Pyruvoyl-Ala-Ala-Ile)	reduced
OBu-AGPAIR ({Butanoyl(2-oxo)}-AGPAIR) [resembles the N-terminus of Pep5]	reduced
Glx-AAIVK	no significant formation of the reduced peptide
Obu-RAIVK	accepted as substrates
Pyr-LGPAIK (Pyruvoyl-LGPAIK) [mimics the N-terminal portion of dehydroepicidin 280]	reduced
OBu-AAAVK ({Butanoyl(2-oxo)}-AAAVK)	substrates for the enzyme
Pyr-BPVLAAVAVAKKK	reduced
Pyr-AAVLK	reduced
Obu-AAIVK	accepted as substrates
